Three compounds from patent US11208412B2 (DAEGU-GYEONGBUK MEDICAL INNOVATION FOUNDATION, priority 2017, dated 2021) can be followed below.

Common to all, as to test: Kinase selectivity, DiscoverX scanMAX Kinase assay panel (% control)
Common to all, as to type: binding

Test [1] addresses T1, kinases of the scanMAX Kinase assay panel (Homo sapiens, UniProt P00533).
T1 construct: purchased DiscoverX Co. (contract measurement) scanMAX Kinase assay panel
As to conditions: EGFR; 1 uM. The essentials:
(§1)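 Binding-panel profiling at one concentration, 1 uM in DMSO; values are % of DMSO control after subtracting the positive-control floor. Less than 35% means activity on that kinase.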

In test [2] the target is T2, kinases of the scanMAX Kinase assay panel (Homo sapiens, UniProt P10721, V559D/V654A).
T2 construct: purchased DiscoverX Co. (contract measurement) scanMAX Kinase assay panel
T2 sequence (P10721 26-976 V559D/V654A): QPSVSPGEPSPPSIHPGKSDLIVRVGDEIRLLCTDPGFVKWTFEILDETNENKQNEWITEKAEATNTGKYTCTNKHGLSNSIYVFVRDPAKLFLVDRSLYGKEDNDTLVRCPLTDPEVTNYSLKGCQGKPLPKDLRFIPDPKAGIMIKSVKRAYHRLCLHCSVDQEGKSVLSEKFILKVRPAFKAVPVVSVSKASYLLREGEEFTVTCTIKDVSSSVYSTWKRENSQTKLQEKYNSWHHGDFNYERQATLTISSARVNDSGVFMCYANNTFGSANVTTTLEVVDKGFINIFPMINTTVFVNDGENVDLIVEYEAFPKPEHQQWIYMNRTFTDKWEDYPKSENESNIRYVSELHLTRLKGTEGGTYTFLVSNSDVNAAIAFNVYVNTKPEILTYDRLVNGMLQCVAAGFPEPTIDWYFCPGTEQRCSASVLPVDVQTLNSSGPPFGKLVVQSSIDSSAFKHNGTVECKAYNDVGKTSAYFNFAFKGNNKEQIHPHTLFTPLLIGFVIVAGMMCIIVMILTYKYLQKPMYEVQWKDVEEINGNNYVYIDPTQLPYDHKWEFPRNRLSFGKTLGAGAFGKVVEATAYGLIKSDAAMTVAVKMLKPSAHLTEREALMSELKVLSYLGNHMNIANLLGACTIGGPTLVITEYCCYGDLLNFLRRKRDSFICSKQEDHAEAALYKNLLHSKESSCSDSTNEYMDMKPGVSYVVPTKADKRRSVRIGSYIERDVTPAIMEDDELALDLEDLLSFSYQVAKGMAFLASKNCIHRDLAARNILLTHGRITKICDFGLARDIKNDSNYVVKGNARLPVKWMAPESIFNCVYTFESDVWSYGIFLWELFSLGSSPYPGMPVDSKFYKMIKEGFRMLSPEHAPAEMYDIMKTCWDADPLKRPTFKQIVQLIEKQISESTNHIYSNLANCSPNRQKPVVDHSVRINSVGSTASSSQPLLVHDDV
As to conditions: KIT(V559D, V654A); 1 uM. The essentials:
as §1

Test [3] concerns the target T3, kinases of the scanMAX Kinase assay panel (Homo sapiens, UniProt P16234).
T3 construct: purchased DiscoverX Co. (contract measurement) scanMAX Kinase assay panel
As to conditions: PDGFRA; 1 uM. The essentials: as §1

In test [4] the target is T4, kinases of the scanMAX Kinase assay panel (Homo sapiens, UniProt P31751).
T4 construct: purchased DiscoverX Co. (contract measurement) scanMAX Kinase assay panel
T4 sequence (P31751 whole entry): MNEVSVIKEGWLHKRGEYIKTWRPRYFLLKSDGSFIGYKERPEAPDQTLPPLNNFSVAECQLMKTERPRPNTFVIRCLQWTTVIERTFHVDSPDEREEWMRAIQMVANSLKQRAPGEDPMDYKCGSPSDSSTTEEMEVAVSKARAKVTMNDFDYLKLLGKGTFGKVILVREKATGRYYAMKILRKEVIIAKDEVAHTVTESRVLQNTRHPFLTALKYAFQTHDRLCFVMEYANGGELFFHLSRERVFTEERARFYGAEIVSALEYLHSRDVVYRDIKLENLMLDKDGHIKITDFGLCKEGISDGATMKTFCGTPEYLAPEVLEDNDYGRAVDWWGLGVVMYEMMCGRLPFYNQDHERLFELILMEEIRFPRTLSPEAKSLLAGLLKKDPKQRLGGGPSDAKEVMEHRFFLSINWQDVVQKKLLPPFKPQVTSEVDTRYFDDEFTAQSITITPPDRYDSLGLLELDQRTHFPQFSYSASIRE
As to conditions: AKT2; 1 uM. The method in brief:
as §1

For test [5], the target named is T5, kinases of the scanMAX Kinase assay panel (Homo sapiens, UniProt P35916).
T5 construct: purchased DiscoverX Co. (contract measurement) scanMAX Kinase assay panel
As to conditions: FLT4; 1 uM. The method in brief:
as §1

Test [6] concerns the target T6, kinases of the scanMAX Kinase assay panel (Homo sapiens, UniProt P36888, R834Q).
T6 construct: purchased DiscoverX Co. (contract measurement) scanMAX Kinase assay panel
T6 sequence (P36888 27-993 R834Q): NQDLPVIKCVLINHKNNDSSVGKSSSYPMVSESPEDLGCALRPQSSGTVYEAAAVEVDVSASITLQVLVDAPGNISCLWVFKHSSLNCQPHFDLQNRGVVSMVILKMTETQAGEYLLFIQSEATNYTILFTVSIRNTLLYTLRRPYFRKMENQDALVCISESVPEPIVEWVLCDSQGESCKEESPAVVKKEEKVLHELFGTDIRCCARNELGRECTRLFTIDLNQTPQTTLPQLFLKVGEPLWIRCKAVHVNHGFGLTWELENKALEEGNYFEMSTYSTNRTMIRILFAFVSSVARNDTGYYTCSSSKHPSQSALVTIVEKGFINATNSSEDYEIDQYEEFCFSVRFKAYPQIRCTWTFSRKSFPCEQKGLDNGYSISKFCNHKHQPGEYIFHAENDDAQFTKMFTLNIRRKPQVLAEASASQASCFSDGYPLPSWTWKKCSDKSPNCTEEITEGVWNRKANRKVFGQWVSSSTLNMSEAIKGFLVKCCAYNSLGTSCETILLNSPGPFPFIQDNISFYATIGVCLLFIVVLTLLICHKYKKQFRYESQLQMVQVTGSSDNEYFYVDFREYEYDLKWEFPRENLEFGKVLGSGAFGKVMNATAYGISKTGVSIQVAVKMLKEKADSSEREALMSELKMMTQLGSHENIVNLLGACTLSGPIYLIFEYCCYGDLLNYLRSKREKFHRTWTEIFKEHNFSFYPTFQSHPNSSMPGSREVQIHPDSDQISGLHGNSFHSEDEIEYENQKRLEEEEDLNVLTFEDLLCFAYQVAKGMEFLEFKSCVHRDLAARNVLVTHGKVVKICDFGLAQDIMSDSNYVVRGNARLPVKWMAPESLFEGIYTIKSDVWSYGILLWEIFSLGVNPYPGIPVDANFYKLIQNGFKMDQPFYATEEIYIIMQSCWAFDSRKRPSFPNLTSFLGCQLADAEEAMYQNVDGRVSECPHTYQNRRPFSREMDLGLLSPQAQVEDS
Conditions: FLT3(R834Q); 1 uM. The method in brief: as §1

For test [7], the target named is T7, kinases of the scanMAX Kinase assay panel (Homo sapiens, UniProt P42685).
T7 construct: purchased DiscoverX Co. (contract measurement) scanMAX Kinase assay panel
As to conditions: FRK; 1 uM. The essentials: as §1

For test [8], the target named is T8, kinases of the scanMAX Kinase assay panel (Homo sapiens, UniProt P49760).
T8 construct: purchased DiscoverX Co. (contract measurement) scanMAX Kinase assay panel
T8 sequence (P49760 whole entry): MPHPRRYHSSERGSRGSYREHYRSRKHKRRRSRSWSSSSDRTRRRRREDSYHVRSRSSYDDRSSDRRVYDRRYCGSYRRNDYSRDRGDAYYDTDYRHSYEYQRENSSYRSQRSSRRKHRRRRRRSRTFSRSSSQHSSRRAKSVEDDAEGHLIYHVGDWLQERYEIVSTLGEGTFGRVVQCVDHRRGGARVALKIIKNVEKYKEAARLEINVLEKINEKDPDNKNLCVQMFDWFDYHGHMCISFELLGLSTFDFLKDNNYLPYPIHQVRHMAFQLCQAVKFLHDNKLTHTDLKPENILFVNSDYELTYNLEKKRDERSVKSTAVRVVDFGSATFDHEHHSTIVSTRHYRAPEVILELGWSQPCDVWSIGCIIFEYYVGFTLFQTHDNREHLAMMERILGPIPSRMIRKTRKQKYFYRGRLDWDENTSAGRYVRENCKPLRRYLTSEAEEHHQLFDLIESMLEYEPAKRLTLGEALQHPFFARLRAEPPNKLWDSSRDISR
Conditions: CLK2; 1 uM. The method in brief:
as §1

The target of test [9] is T9, kinases of the scanMAX Kinase assay panel (Homo sapiens, UniProt P51813).
T9 construct: purchased DiscoverX Co. (contract measurement) scanMAX Kinase assay panel
T9 sequence (P51813 1-675): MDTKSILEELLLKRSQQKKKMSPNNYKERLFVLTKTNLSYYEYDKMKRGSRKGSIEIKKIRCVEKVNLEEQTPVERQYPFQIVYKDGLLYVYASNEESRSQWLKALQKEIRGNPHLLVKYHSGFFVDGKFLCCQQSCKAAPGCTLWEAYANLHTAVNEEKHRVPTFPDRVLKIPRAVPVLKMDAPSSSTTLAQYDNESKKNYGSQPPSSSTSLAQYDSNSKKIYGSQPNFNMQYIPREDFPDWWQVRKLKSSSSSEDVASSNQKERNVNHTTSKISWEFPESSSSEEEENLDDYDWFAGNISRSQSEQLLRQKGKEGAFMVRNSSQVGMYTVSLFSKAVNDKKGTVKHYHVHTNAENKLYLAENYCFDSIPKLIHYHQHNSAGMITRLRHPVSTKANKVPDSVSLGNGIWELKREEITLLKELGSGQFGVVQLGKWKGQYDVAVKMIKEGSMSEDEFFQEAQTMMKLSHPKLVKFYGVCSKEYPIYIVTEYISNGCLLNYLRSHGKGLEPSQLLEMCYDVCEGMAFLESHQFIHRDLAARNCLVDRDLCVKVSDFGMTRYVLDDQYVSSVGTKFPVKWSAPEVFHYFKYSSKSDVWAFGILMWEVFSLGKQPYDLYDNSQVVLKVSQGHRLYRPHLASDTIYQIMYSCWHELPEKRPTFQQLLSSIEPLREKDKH
As to conditions: BMX; 1 uM. The method in brief: as §1

Test [10] deals with T10, kinases of the scanMAX Kinase assay panel (Homo sapiens, UniProt Q13153).
T10 construct: purchased DiscoverX Co. (contract measurement) scanMAX Kinase assay panel
As to conditions: PAK1; 1 uM. The method in brief: as §1

Test [11] addresses T11, kinases of the scanMAX Kinase assay panel (Homo sapiens, UniProt Q13177).
T11 construct: purchased DiscoverX Co. (contract measurement) scanMAX Kinase assay panel
Conditions: PAK2; 1 uM. The essentials:
as §1

T11 sequence (Q13177 whole entry): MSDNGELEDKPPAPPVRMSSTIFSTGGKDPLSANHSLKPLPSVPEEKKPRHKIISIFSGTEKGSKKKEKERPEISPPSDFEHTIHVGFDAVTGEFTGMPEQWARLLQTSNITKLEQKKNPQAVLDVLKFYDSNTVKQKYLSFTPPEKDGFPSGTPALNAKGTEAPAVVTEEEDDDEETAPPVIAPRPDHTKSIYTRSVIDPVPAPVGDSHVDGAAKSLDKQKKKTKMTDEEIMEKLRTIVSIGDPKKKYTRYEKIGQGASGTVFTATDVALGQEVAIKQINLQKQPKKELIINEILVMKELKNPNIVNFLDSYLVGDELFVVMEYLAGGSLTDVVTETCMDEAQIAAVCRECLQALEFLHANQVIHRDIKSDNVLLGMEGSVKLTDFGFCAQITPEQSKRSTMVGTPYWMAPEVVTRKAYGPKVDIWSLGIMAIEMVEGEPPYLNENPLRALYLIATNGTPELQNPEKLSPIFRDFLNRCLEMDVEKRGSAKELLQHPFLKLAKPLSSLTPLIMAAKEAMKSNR
T1 sequence (P00533 25-1210): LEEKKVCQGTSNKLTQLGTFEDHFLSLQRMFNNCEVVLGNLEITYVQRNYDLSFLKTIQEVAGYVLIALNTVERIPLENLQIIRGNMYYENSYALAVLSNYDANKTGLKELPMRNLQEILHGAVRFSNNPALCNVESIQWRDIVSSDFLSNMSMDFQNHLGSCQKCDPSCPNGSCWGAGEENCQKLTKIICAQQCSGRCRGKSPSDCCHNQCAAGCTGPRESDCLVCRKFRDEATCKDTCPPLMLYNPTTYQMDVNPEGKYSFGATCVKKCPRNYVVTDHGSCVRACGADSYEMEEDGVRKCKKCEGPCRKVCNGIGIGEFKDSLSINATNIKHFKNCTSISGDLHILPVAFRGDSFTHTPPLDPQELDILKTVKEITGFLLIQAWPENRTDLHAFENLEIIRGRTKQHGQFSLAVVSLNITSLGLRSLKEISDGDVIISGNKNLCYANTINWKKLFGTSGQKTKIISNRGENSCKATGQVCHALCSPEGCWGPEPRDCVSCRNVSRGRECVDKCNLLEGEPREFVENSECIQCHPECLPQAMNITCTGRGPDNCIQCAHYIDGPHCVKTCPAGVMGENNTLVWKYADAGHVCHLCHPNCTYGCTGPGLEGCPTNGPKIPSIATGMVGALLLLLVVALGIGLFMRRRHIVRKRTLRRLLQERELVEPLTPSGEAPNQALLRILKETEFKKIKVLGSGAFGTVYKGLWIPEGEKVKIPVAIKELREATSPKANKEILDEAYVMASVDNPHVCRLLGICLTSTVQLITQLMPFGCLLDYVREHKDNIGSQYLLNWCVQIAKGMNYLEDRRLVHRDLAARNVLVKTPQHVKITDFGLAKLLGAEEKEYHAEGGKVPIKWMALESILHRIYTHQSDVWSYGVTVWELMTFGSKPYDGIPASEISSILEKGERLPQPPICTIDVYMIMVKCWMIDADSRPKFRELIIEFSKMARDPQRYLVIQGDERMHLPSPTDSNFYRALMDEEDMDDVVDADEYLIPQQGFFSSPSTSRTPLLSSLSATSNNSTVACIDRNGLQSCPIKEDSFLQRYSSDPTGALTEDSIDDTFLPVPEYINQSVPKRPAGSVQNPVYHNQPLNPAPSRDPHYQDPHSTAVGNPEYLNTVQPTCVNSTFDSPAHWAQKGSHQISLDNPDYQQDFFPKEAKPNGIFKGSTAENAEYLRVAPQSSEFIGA
T3 sequence (P16234 24-1089): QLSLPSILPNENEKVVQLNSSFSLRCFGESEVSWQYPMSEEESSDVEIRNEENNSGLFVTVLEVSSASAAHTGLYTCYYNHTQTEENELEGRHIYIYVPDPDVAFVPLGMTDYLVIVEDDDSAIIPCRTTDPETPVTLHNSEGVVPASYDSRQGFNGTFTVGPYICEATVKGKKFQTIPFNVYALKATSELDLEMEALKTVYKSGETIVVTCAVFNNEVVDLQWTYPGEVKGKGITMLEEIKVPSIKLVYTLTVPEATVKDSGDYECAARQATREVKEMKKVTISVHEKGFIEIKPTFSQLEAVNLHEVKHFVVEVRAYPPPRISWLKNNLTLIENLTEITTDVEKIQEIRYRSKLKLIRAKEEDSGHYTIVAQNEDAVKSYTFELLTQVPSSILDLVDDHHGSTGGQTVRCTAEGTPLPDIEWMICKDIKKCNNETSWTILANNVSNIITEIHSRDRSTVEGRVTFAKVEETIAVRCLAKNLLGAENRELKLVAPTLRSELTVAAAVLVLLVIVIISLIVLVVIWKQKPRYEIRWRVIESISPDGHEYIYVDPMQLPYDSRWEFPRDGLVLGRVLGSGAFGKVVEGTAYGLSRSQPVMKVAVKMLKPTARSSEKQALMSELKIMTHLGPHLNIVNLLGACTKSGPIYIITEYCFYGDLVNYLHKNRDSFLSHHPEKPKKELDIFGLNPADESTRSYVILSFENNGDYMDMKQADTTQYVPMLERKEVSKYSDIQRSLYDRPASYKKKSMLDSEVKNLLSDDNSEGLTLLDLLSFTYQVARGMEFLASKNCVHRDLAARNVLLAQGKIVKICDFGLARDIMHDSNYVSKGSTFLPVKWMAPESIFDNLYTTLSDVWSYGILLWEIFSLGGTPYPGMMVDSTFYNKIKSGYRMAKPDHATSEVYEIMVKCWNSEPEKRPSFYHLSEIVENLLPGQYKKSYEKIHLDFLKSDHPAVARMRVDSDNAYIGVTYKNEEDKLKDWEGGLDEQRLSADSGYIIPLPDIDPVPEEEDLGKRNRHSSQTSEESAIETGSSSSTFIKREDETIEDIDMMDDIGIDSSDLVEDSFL

Take `CC1(Nc2nc(Nc3cnn([C@H]4CCN(C5COC5)C[C@@H]4F)c3Cl)nc3[nH]cc(C#N)c23)CC1` [Example 52, 2-((5-chloro-1-((3S,4S)-3-fluoro-1-(oxetane-3-yl)piperidine-4-yl)-1H-pyrazole-4-yl)amino)((1-methylcyclopropyl)amino)-7H-pyrrolo[2,3-d]pyrimidine-5-carbonitrile]: the remaining binding at 1 µM worked out at 31% in test [1]; 0.9% in test [2]; 9.7% in test [3]; 100% in [4]; 0.6% in test [5]; 7.8% in test [6]. The remaining binding at 1 µM in test [7] stood at 49%; in test [8], 2.6%; in test [9], 39%; in test [10], 75%; in test [11], 45%.

Turning to `CCNc1nc(Nc2ccc(C(=O)N3CCC(N4CCOCC4)CC3)cc2OC)nc2[nH]cc(C(F)(F)F)c12` [Example 104, (4-((4-(ethylamino)-5-(trifluoromethyl)-7H-pyrrolo[2,3-d]pyrimidine-2-yl)amino)-3-methoxyphenyl)(4-morpholinopiperidine-1-yl)methanone], the remaining binding at 1 µM in [1] turned out to be 82%; in [2], 94%; in test [3] it was 88%; in test [4], 94%; in [5], 97%; in test [6], 100%. The remaining binding at 1 µM is 77% in test [7]; 0.9% in test [8]; 94% in [9]; 71% in [10]; 71% in test [11].

In the case of `CNc1nc(Nc2ccc(C(=O)N3CCOCC3)cc2OC)nc2[nH]cc(C#N)c12` [Example 1, 2-((2-methoxy-4-(morpholine-4-carbonyl)phenyl)amino)-4-(methylamino)-7H-pyrrolo[2,3-d]pyrimidine-5-carbonitrile], the remaining binding at 1 µM turned out to be 91% in test [1]; 76% in [2]; 15% in [3]; 86% in [4]; 100% in test [5]; 65% in test [6]. Also, the remaining binding at 1 µM was 97% in [7]; 5.9% in test [8]; 93% in [9]; 100% in [10]; 95% in [11].
